Test results: ChEMBL document CHEMBL3045592, “Studies of O,O-dimethyl α-(2,4-dichlorophenoxyacetoxy)ethylphosphonate (HW02) as a new herbicide. 1. Synthesis and herbicidal activity of HW02 and analogues as novel inhibitors of pyruvate dehydrogenase complex” (J Agric Food Chem, 2011)

Legend:
Abutilon theophrasti [1] = assay: Post-emergence herbicidal activity against Abutilon theophrasti (velvetleaf) assessed as growth inhibition at 150 ai g/ha after 20 days by green house test; format: functional
Amaranthus spinosus [2] = assay: Pre-emergence herbicidal activity against Amaranthus spinosus assessed as growth inhibition at 75 ai g/ha after 20 days by green house test; format: functional
Digitaria sanguinalis [3] = assay: Pre-emergence herbicidal activity against Digitaria sanguinalis (hairy crabgrass) assessed as growth inhibition at 450 ai g/ha after 20 days by green house test; format: functional
Setaria viridis [4] = assay: Post-emergence herbicidal activity against Setaria viridis (green foxtail) assessed as growth inhibition at 450 ai g/ha after 20 days by green house test; format: functional
[5] = system: Brassica rapa subsp. oleifera; assay: Pre-emergence herbicidal activity against Brassica rapa subsp. oleifera Si Yue Man assessed as growth inhibition at 1500 ai g/ha after 20 days by green house test; format: functional
Digitaria sanguinalis [6] = assay: Pre-emergence herbicidal activity against Digitaria sanguinalis (hairy crabgrass) assessed as growth inhibition at 150 ai g/ha after 20 days by green house test; format: functional
Amaranthus retroflexus [7] = assay: Post-emergence herbicidal activity against Amaranthus retroflexus assessed as growth inhibition at 450 ai g/ha after 20 days by green house test; format: functional
Medicago sativa [8] = assay: Post-emergence herbicidal activity against Medicago sativa (alfalfa) assessed as growth inhibition at 1500 ai g/ha after 20 days by green house test; format: functional
Chenopodium album [9] = assay: Post-emergence herbicidal activity against Chenopodium album assessed as growth inhibition at 450 ai g/ha after 20 days by green house test; format: functional
Chenopodium album [10] = assay: Pre-emergence herbicidal activity against Chenopodium album assessed as growth inhibition at 75 ai g/ha after 20 days by green house test; format: functional
Abutilon theophrasti [11] = assay: Pre-emergence herbicidal activity against Abutilon theophrasti (velvetleaf) assessed as growth inhibition at 75 ai g/ha after 20 days by green house test; format: functional
Amaranthus spinosus [12] = assay: Post-emergence herbicidal activity against Amaranthus spinosus assessed as growth inhibition at 450 ai g/ha after 20 days by green house test; format: functional
Digitaria sanguinalis [13] = assay: Pre-emergence herbicidal activity against Digitaria sanguinalis (hairy crabgrass) assessed as growth inhibition at 75 ai g/ha after 20 days by green house test; format: functional
Setaria viridis [14] = assay: Pre-emergence herbicidal activity against Setaria viridis (green foxtail) assessed as growth inhibition at 75 ai g/ha after 20 days by green house test; format: functional
Amaranthus spinosus [15] = assay: Post-emergence herbicidal activity against Amaranthus spinosus assessed as growth inhibition at 75 ai g/ha after 20 days by green house test; format: functional
Cucumis sativus [16] = assay: Herbicidal activity against Cucumis sativus Jin 4 (cucumber) assessed as inhibition of stem growth after 3 days; format: functional, organism-based; conditions: Jin 4, 72 h
[17] = Toxicity against Oryza sativa (rice) assessed as growth inhibition at 450 ai g/ha post-emergent application measured after 20 days by green house crop selectivity test; format: organism-based; conditions: in vivo, read-out: GI
Digitaria sanguinalis [18] = assay: Post-emergence herbicidal activity against Digitaria sanguinalis (hairy crabgrass) assessed as growth inhibition at 75 ai g/ha after 20 days by green house test; format: functional
Chenopodium album [19] = assay: Post-emergence herbicidal activity against Chenopodium album assessed as growth inhibition at 75 ai g/ha after 20 days by green house test; format: functional
Abutilon theophrasti [20] = assay: Pre-emergence herbicidal activity against Abutilon theophrasti (velvetleaf) assessed as growth inhibition at 450 ai g/ha after 20 days by green house test; format: functional
Setaria viridis [21] = assay: Post-emergence herbicidal activity against Setaria viridis (green foxtail) assessed as growth inhibition at 150 ai g/ha after 20 days by green house test; format: functional
Chenopodium album [22] = assay: Pre-emergence herbicidal activity against Chenopodium album assessed as growth inhibition at 450 ai g/ha after 20 days by green house test; format: functional
Echinochloa crus-galli [23] = assay: Post-emergence herbicidal activity against Echinochloa crus-galli (barnyard grass) assessed as growth inhibition at 450 ai g/ha after 20 days by green house test; format: functional
Amaranthus retroflexus [24] = assay: Pre-emergence herbicidal activity against Amaranthus retroflexus assessed as growth inhibition at 1500 ai g/ha after 20 days by green house test; format: functional
[25] = system: Brassica rapa subsp. oleifera; assay: Post-emergence herbicidal activity against Brassica rapa subsp. oleifera Si Yue Man assessed as growth inhibition at 1500 ai g/ha after 20 days by green house test; format: functional
Medicago sativa [26] = assay: Pre-emergence herbicidal activity against Medicago sativa (alfalfa) assessed as growth inhibition at 1500 ai g/ha after 20 days by green house test; format: functional
Digitaria sanguinalis [27] = assay: Post-emergence herbicidal activity against Digitaria sanguinalis (hairy crabgrass) assessed as growth inhibition at 150 ai g/ha after 20 days by green house test; format: functional
[28] = target: Pyruvate dehydrogenase complex (Vigna radiata var. radiata); assay: Inhibition of PDHc in Vigna radiata var. radiata VC2778A shoot mitochondria assessed as decrease in rate of NADH formation using sodium pyruvate as substrate preincubated for 25 min before substrate addition measured after 1 min by spectrophotometric assay; format: protein-complex assay
Digitaria sanguinalis [29] = assay: Post-emergence herbicidal activity against Digitaria sanguinalis (hairy crabgrass) assessed as growth inhibition at 450 ai g/ha after 20 days by green house test; format: functional
Brassica juncea = assay: Post-emergence herbicidal activity against Brassica juncea assessed as growth inhibition at 450 ai g/ha after 20 days by green house test; format: functional
Chenopodium album [30] = assay: Pre-emergence herbicidal activity against Chenopodium album assessed as growth inhibition at 150 ai g/ha after 20 days by green house test; format: functional
Pisum sativum = assay: Post-emergence herbicidal activity against Pisum sativum Zhongwan-2 (pea) assessed as growth inhibition at 450 ai g/ha after 20 days by green house test; conditions: Lathyrus oleraceus
Echinochloa crus-galli [31] = assay: Pre-emergence herbicidal activity against Echinochloa crus-galli (barnyard grass) assessed as growth inhibition at 1500 ai g/ha after 20 days by green house test; format: functional
Digitaria sanguinalis [32] = assay: Pre-emergence herbicidal activity against Digitaria sanguinalis (hairy crabgrass) assessed as growth inhibition at 1500 ai g/ha after 20 days by green house test; format: functional
Setaria viridis [33] = assay: Post-emergence herbicidal activity against Setaria viridis (green foxtail) assessed as growth inhibition at 75 ai g/ha after 20 days by green house test; format: functional
Digitaria sanguinalis [34] = assay: Post-emergence herbicidal activity against Digitaria sanguinalis (hairy crabgrass) assessed as growth inhibition at 1500 ai g/ha after 20 days by green house test; format: functional
Amaranthus spinosus [35] = assay: Pre-emergence herbicidal activity against Amaranthus spinosus assessed as growth inhibition at 150 ai g/ha after 20 days by green house test; format: functional
Abutilon theophrasti [36] = assay: Pre-emergence herbicidal activity against Abutilon theophrasti (velvetleaf) assessed as growth inhibition at 150 ai g/ha after 20 days by green house test; format: functional
Setaria viridis [37] = assay: Pre-emergence herbicidal activity against Setaria viridis (green foxtail) assessed as growth inhibition at 150 ai g/ha after 20 days by green house test; format: functional
Setaria viridis [38] = assay: Pre-emergence herbicidal activity against Setaria viridis (green foxtail) assessed as growth inhibition at 450 ai g/ha after 20 days by green house test; format: functional
Amaranthus spinosus [39] = assay: Pre-emergence herbicidal activity against Amaranthus spinosus assessed as growth inhibition at 450 ai g/ha after 20 days by green house test; format: functional
Abutilon theophrasti [40] = assay: Post-emergence herbicidal activity against Abutilon theophrasti (velvetleaf) assessed as growth inhibition at 75 ai g/ha after 20 days by green house test; format: functional
Cucumis sativus [41] = assay: Herbicidal activity against Cucumis sativus Jin 4 (cucumber) assessed as inhibition of root growth after 3 days; format: functional, organism-based; conditions: Jin 4, 72 h
Abutilon theophrasti [42] = assay: Post-emergence herbicidal activity against Abutilon theophrasti (velvetleaf) assessed as growth inhibition at 450 ai g/ha after 20 days by green house test; format: functional
Amaranthus spinosus [43] = assay: Post-emergence herbicidal activity against Amaranthus spinosus assessed as growth inhibition at 150 ai g/ha after 20 days by green house test; format: functional
Chenopodium album [44] = assay: Post-emergence herbicidal activity against Chenopodium album assessed as growth inhibition at 150 ai g/ha after 20 days by green house test; format: functional
Echinochloa crus-galli [45] = assay: Post-emergence herbicidal activity against Echinochloa crus-galli (barnyard grass) assessed as growth inhibition at 1500 ai g/ha after 20 days by green house test; format: functional
Amaranthus retroflexus [46] = assay: Post-emergence herbicidal activity against Amaranthus retroflexus assessed as growth inhibition at 1500 ai g/ha after 20 days by green house test; format: functional

COP(=O)(COC(=O)COc1ccc(Cl)cc1Cl)OC
growth inhibition (GI) (Abutilon theophrasti [1]): 99%
growth inhibition (GI) (Amaranthus spinosus [2]): 0%
growth inhibition (GI) (Digitaria sanguinalis [3]): 0%
growth inhibition (GI) (Setaria viridis [4]): 0%
growth inhibition (GI) [5]: 90%
growth inhibition (GI) (Digitaria sanguinalis [6]): 0%
growth inhibition (GI) (Amaranthus retroflexus [7]): 97.5%
growth inhibition (GI) (Medicago sativa [8]): 90%
growth inhibition (GI) (Chenopodium album [9]): 100%
growth inhibition (GI) (Chenopodium album [10]): 0%
growth inhibition (GI) (Abutilon theophrasti [11]): 0%
growth inhibition (GI) (Amaranthus spinosus [12]): 97.5%
growth inhibition (GI) (Digitaria sanguinalis [13]): 0%
growth inhibition (GI) (Setaria viridis [14]): 0%
growth inhibition (GI) (Amaranthus spinosus [15]): 62.5%
IC50 (Cucumis sativus [16]): 7.79 µM
inhibition at 480 h [17]: 0%
growth inhibition (GI) (Digitaria sanguinalis [18]): 0%
growth inhibition (GI) (Chenopodium album [19]): 82.5%
growth inhibition (GI) (Abutilon theophrasti [20]): 47.5%
growth inhibition (GI) (Setaria viridis [21]): 0%
growth inhibition (GI) (Chenopodium album [22]): 52.5%
growth inhibition (GI) (Echinochloa crus-galli [23]): 0%
growth inhibition (GI) (Amaranthus retroflexus [24]): 90%
growth inhibition (GI) [25]: 90%
growth inhibition (GI) (Medicago sativa [26]): 75%
growth inhibition (GI) (Digitaria sanguinalis [27]): 0%
IC50 [28]: 19.7 µM
growth inhibition (GI) (Digitaria sanguinalis [29]): 0%
growth inhibition (GI) (Brassica juncea): 100%
growth inhibition (GI) (Chenopodium album [30]): 0%
growth inhibition (GI) (Pisum sativum): 87.5%
growth inhibition (GI) (Echinochloa crus-galli [31]): <=50%
growth inhibition (GI) (Digitaria sanguinalis [32]): 90%
growth inhibition (GI) (Setaria viridis [33]): 0%
growth inhibition (GI) (Digitaria sanguinalis [34]): <=50%
growth inhibition (GI) (Amaranthus spinosus [35]): 0%
growth inhibition (GI) (Abutilon theophrasti [36]): 0%
growth inhibition (GI) (Setaria viridis [37]): 0%
growth inhibition (GI) (Setaria viridis [38]): 5%
growth inhibition (GI) (Amaranthus spinosus [39]): 52.5%
growth inhibition (GI) (Abutilon theophrasti [40]): 82.5%
IC50 (Cucumis sativus [41]): 0.0577 µM
growth inhibition (GI) (Abutilon theophrasti [42]): 100%
growth inhibition (GI) (Amaranthus spinosus [43]): 92.5%
growth inhibition (GI) (Chenopodium album [44]): 99.5%
growth inhibition (GI) (Echinochloa crus-galli [45]): <=50%
growth inhibition (GI) (Amaranthus retroflexus [46]): 90%
